The results in this text go back to patent US20150133454A1, “NANOSTRUCTURED MUCOADHESIVE MICROPARTICLES” (SNU R&DB FOUNDATION, priority 2012, published 2015).

For data set [1], the system named is Intra ocular pressure (IOP) of the rabbit eye. Put plainly: Therapeutic effect: decrease in IOP after administration of drug-loaded formulations. Format: in vivo. The following applies: topical, 556.5 μg dorzolamide (25 μl of Trusopt 2%). On the procedure:
The formulation of microparticles as prepared in Examples 6-1 and 6-2 was administered to the rabbit eye according to Example 4 and IOP was measured as described in Example 5.
For testing therapeutic effect by BRT, a total of 7 samples were used. […] For testing therapeutic effect by dorzolamide, 25 μl of Trusopt 2% (MSD, USA), PVA tablet (just containing 556.5 μg of dorzolamide 556.5 μg without any microparticles) and four different types of microparticles prepared as described above containing 556.5 μg dorzolamide were used for the test.
Then, a device for measuring IOP called Tonopen as described in Example 5 was used to measure IOP before the administration and 0.5 h˜13 h after the administration to confirm the efficacy of the drug.

A short description of data set [2]: Pharmacokinetic analysis: brimonidine concentration in aqueous humor. The following applies: brimonidine in rabbit aqueous humor after topical administration. Format: in vivo. As for the experimental part: Seven different formulations loaded with brimonidine prepared as described in Example 6-1 were topically administered to the rabbit eye and pharmacokinetics of the drug administered was examined as described below from the aqueous humor taken at a specified time in FIG. 12 after the administration. Specifically, the rabbit was generally anesthetized as described in Example 4 at the specified time after the administration and 50 μl of Aqueous humor (AH) was obtained from the rabbit eye using 1 ml syringe with 30 gauge needle, which was then used for SPE (Solid Phase Extraction) and HPLC analysis. First, Brimonidine Stock solution was prepared at the final concentration of […] in distilled water, from which 2000, 1000, 800, 600, 400, 200, 100, and 50 μg/ml of Brimonidine solution were prepared. For the calibration, 25 μl of AH from no treatment control, 25 μl Stock Solution (2000, 1000, 800, 600, 400, 200, 100, 50 μg/ml), 50 μl IS (Internal standard, clonidine)(50 μg/ml) and 200 μl of PBS (pH=8) were mixed and centrifuged at 11000×g for 10 min. and 100 μl of the supernatant was used for SPE analysis.
For the sample from the rabbit eye treated with the drug, 50 μl of AH, 50 μl of IS (50 μg/ml) and 200 μl of PBS (pH=8) were mixed and centrifuged at 11000×g for 10 min and 100 μl of the supernatant was used for SPE analysis. SPE (Bond-Eluct-C18, 100 mg, 1 ml, Agilent Technologies) analysis was proceed as below. Before the sample injection, it was washed with MeOH (1 ml) and distilled water (1 ml). Each sample for the calibration and for the analysis was then injected and washed with 1 ml of PBS and eluted with 1 ml of 70% acetonitrile, followed by evaporation for 3 hrs at 40° C. using SpeedVac (Thermo Savant SPD 2010 SpeedVac System, Thermo Electron Corporation, USA). […]
HPLC (Agilent 1260 Series, Agilent Technologies, CA, USA) was used for determining the concentration, in which 50 μl of sample was injected and analyzed under the following condition: Mobile phase=20 mM phosphate buffer (pH=2.5) : MeOH=9:1, flow rate 1 ml/min, 248 nm

Consider `CCN[C@H]1C[C@H](C)S(=O)(=O)c2sc(S(N)(=O)=O)cc21` [Dorzolamide solution, Dorzolamide], for which the “time for which the formulation was effective in decreasing IOP (Dorzolamide)” value in data set [1] came to 5 h.

Usually AUC stands for the area under the concentration-time curve, a measure of exposure. A higher AUC goes with more exposure. The Cmax is the highest concentration seen after dosing. In data set [2], Brimonidine Tartrate [BRT solution] registered an AUC of 795 ng·h/mL, a Cmax of 692 ng/mL and a tmax of 40 min.
